For four compounds, TGI results are on record in PubChem BioAssay (NCI).

SMILES strings stand for the structures.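 Each compound was tested at five concentrations against cells in 96-well plates for 48 hours. TGI is the concentration that stops growth completely.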 Where a SMILES comes first, the peptide text is derived from it. The star is where a group is joined. X36 = O=C(c1ccc(-c2ccc(Cl)cc2Cl)o1)*

The first assay has as its system TK-10 renal. Description: DTP human tumour cell line panel, 48 h.
`O=c1oc2ccccc2c(Nc2ccc3c(c2)Oc2ccccc2O3)c1[N+](=O)[O-]` gave a total growth inhibition concentration (TGI) of 40.1 µM.

`CCC(C)C(NC(=O)CNC(=O)C(Cc1ccccc1)NC(=O)C1CCCN1C(=O)c1ccc(-c2ccc(Cl)cc2Cl)o1)C(=O)OC` (centres undefined) (X36-PFGI-OMe; configuration not given here) yielded a total growth inhibition concentration (TGI) of over 100 µM.

The subject of the next assay is CAKI-1 renal. Description: DTP human tumour cell line panel, 48 h.
Regarding `CCOC(=O)/C=C(\C(=O)OCC)n1cc(C)c(=O)n(Cc2cnnn2CCCCOC(C)=O)c1=O`, the TGI turned out to be 8.73 µM.

The compound `Cc1ccc2c(=O)cc(-c3cccs3)[nH]c2n1` registered a concentration for total growth inhibition (TGI) of over 100 µM.

`O=c1oc2ccccc2c(Nc2ccc3c(c2)Oc2ccccc2O3)c1[N+](=O)[O-]` came in with a total growth inhibition concentration (TGI) of over 100 µM.

`CCC(C)C(NC(=O)CNC(=O)C(Cc1ccccc1)NC(=O)C1CCCN1C(=O)c1ccc(-c2ccc(Cl)cc2Cl)o1)C(=O)OC` (centres undefined) (X36-PFGI-OMe; configuration not given here) had a concentration for total growth inhibition (TGI) of over 100 µM.

In a further assay the test system is HCC-2998 colon. Description: DTP human tumour cell line panel, 48 h.
For the compound `CCOC(=O)/C=C(\C(=O)OCC)n1cc(C)c(=O)n(Cc2cnnn2CCCCOC(C)=O)c1=O`, the TGI turned out to be 43.9 µM.

Take `Cc1ccc2c(=O)cc(-c3cccs3)[nH]c2n1`: the concentration for total growth inhibition (TGI) is over 83.2 µM.

For `O=c1oc2ccccc2c(Nc2ccc3c(c2)Oc2ccccc2O3)c1[N+](=O)[O-]`, the TGI amounted to 62.4 µM.

`CCC(C)C(NC(=O)CNC(=O)C(Cc1ccccc1)NC(=O)C1CCCN1C(=O)c1ccc(-c2ccc(Cl)cc2Cl)o1)C(=O)OC` (centres undefined) (X36-PFGI-OMe; configuration not given here) yielded a TGI of 64 µM.

In the next assay the test system is EKVX NSCLC. The experiment in a line: DTP human tumour cell line panel, 48 h.
On to `CCOC(=O)/C=C(\C(=O)OCC)n1cc(C)c(=O)n(Cc2cnnn2CCCCOC(C)=O)c1=O`, for which the TGI amounted to 25.2 µM.

The compound `Cc1ccc2c(=O)cc(-c3cccs3)[nH]c2n1` came in with a TGI of over 100 µM.

The compound `O=c1oc2ccccc2c(Nc2ccc3c(c2)Oc2ccccc2O3)c1[N+](=O)[O-]` returned a TGI of 67.6 µM.

`CCC(C)C(NC(=O)CNC(=O)C(Cc1ccccc1)NC(=O)C1CCCN1C(=O)c1ccc(-c2ccc(Cl)cc2Cl)o1)C(=O)OC` (centres undefined) (X36-PFGI-OMe; configuration not given here) yielded a TGI of 89.9 µM.

Another assay has as its system SK-MEL-2 melanoma. The experiment in a line: DTP human tumour cell line panel, 48 h.
As to `CCOC(=O)/C=C(\C(=O)OCC)n1cc(C)c(=O)n(Cc2cnnn2CCCCOC(C)=O)c1=O`, the TGI is 53 µM.

Compound `Cc1ccc2c(=O)cc(-c3cccs3)[nH]c2n1` returned a TGI of over 82.7 µM.

Compound `O=c1oc2ccccc2c(Nc2ccc3c(c2)Oc2ccccc2O3)c1[N+](=O)[O-]` returned a TGI of 34.5 µM.

`CCC(C)C(NC(=O)CNC(=O)C(Cc1ccccc1)NC(=O)C1CCCN1C(=O)c1ccc(-c2ccc(Cl)cc2Cl)o1)C(=O)OC` (centres undefined) (X36-PFGI-OMe; configuration not given here) showed a TGI of over 100 µM.

The test system of a further assay is NCI-H460 lung. Description: DTP human tumour cell line panel, 48 h.
Turning to `CCOC(=O)/C=C(\C(=O)OCC)n1cc(C)c(=O)n(Cc2cnnn2CCCCOC(C)=O)c1=O`, the TGI came out at 65.7 µM.

As to `Cc1ccc2c(=O)cc(-c3cccs3)[nH]c2n1`, the total growth inhibition concentration (TGI) is over 100 µM.

The compound `O=c1oc2ccccc2c(Nc2ccc3c(c2)Oc2ccccc2O3)c1[N+](=O)[O-]` registered a concentration for total growth inhibition (TGI) of over 100 µM.

With `CCC(C)C(NC(=O)CNC(=O)C(Cc1ccccc1)NC(=O)C1CCCN1C(=O)c1ccc(-c2ccc(Cl)cc2Cl)o1)C(=O)OC` (centres undefined) (X36-PFGI-OMe; configuration not given here), the TGI was over 100 µM.

Another assay has as its system MDA-MB-231 breast. The experiment in a line: DTP human tumour cell line panel, 48 h.
`CCOC(=O)/C=C(\C(=O)OCC)n1cc(C)c(=O)n(Cc2cnnn2CCCCOC(C)=O)c1=O` gave a TGI of 50.2 µM.

Take `Cc1ccc2c(=O)cc(-c3cccs3)[nH]c2n1`: the concentration for total growth inhibition (TGI) is over 100 µM.

The compound `O=c1oc2ccccc2c(Nc2ccc3c(c2)Oc2ccccc2O3)c1[N+](=O)[O-]` came in with a TGI of 38.3 µM.

`CCC(C)C(NC(=O)CNC(=O)C(Cc1ccccc1)NC(=O)C1CCCN1C(=O)c1ccc(-c2ccc(Cl)cc2Cl)o1)C(=O)OC` (centres undefined) (X36-PFGI-OMe; configuration not given here) showed a TGI of over 100 µM.

A further assay concerns HOP-92 NSCLC. The experiment in a line: DTP human tumour cell line panel, 48 h.
Turning to `CCOC(=O)/C=C(\C(=O)OCC)n1cc(C)c(=O)n(Cc2cnnn2CCCCOC(C)=O)c1=O`, the concentration for total growth inhibition (TGI) amounted to 4.83 µM.

`Cc1ccc2c(=O)cc(-c3cccs3)[nH]c2n1` had a TGI of over 100 µM.

Compound `O=c1oc2ccccc2c(Nc2ccc3c(c2)Oc2ccccc2O3)c1[N+](=O)[O-]` showed a total growth inhibition concentration (TGI) of 35.2 µM.

On to `CCC(C)C(NC(=O)CNC(=O)C(Cc1ccccc1)NC(=O)C1CCCN1C(=O)c1ccc(-c2ccc(Cl)cc2Cl)o1)C(=O)OC` (centres undefined) (X36-PFGI-OMe; configuration not given here), for which the total growth inhibition concentration (TGI) was 41.9 µM.

In the next assay the test system is OVCAR-8 ovarian. Description: DTP human tumour cell line panel, 48 h.
Turning to `CCOC(=O)/C=C(\C(=O)OCC)n1cc(C)c(=O)n(Cc2cnnn2CCCCOC(C)=O)c1=O`, the concentration for total growth inhibition (TGI) came out at 15.6 µM.

Consider `Cc1ccc2c(=O)cc(-c3cccs3)[nH]c2n1`, for which the TGI was over 100 µM.

In turn, `O=c1oc2ccccc2c(Nc2ccc3c(c2)Oc2ccccc2O3)c1[N+](=O)[O-]` had a concentration for total growth inhibition (TGI) of 37.6 µM.

Consider `CCC(C)C(NC(=O)CNC(=O)C(Cc1ccccc1)NC(=O)C1CCCN1C(=O)c1ccc(-c2ccc(Cl)cc2Cl)o1)C(=O)OC` (centres undefined) (X36-PFGI-OMe; configuration not given here), for which the TGI was over 100 µM.

The next assay has as its system SF-295 CNS. The experiment in a line: DTP human tumour cell line panel, 48 h.
`CCOC(=O)/C=C(\C(=O)OCC)n1cc(C)c(=O)n(Cc2cnnn2CCCCOC(C)=O)c1=O` had a TGI of over 76 µM.

`Cc1ccc2c(=O)cc(-c3cccs3)[nH]c2n1` gave a TGI of over 69.6 µM.

On to `O=c1oc2ccccc2c(Nc2ccc3c(c2)Oc2ccccc2O3)c1[N+](=O)[O-]`, for which the concentration for total growth inhibition (TGI) worked out at 40.5 µM.

`CCC(C)C(NC(=O)CNC(=O)C(Cc1ccccc1)NC(=O)C1CCCN1C(=O)c1ccc(-c2ccc(Cl)cc2Cl)o1)C(=O)OC` (centres undefined) (X36-PFGI-OMe; configuration not given here) had a TGI of over 100 µM.

The subject of a further assay is SN12C renal. The experiment in a line: DTP human tumour cell line panel, 48 h.
As for `CCOC(=O)/C=C(\C(=O)OCC)n1cc(C)c(=O)n(Cc2cnnn2CCCCOC(C)=O)c1=O`, the TGI worked out at 39.3 µM.

Compound `Cc1ccc2c(=O)cc(-c3cccs3)[nH]c2n1` yielded a TGI of over 100 µM.

In turn, `O=c1oc2ccccc2c(Nc2ccc3c(c2)Oc2ccccc2O3)c1[N+](=O)[O-]` displayed a total growth inhibition concentration (TGI) of over 100 µM.

Consider `CCC(C)C(NC(=O)CNC(=O)C(Cc1ccccc1)NC(=O)C1CCCN1C(=O)c1ccc(-c2ccc(Cl)cc2Cl)o1)C(=O)OC` (centres undefined) (X36-PFGI-OMe; configuration not given here), for which the TGI is 82.6 µM.

Another assay deals with NCI-H226 lung. Description: DTP human tumour cell line panel, 48 h.
As for `CCOC(=O)/C=C(\C(=O)OCC)n1cc(C)c(=O)n(Cc2cnnn2CCCCOC(C)=O)c1=O`, the concentration for total growth inhibition (TGI) is 30.4 µM.

On to `Cc1ccc2c(=O)cc(-c3cccs3)[nH]c2n1`, for which the concentration for total growth inhibition (TGI) came out at 63.7 µM.

In the case of `O=c1oc2ccccc2c(Nc2ccc3c(c2)Oc2ccccc2O3)c1[N+](=O)[O-]`, the concentration for total growth inhibition (TGI) stood at 48.1 µM.

`CCC(C)C(NC(=O)CNC(=O)C(Cc1ccccc1)NC(=O)C1CCCN1C(=O)c1ccc(-c2ccc(Cl)cc2Cl)o1)C(=O)OC` (centres undefined) (X36-PFGI-OMe; configuration not given here) showed a concentration for total growth inhibition (TGI) of over 100 µM.

A further assay deals with MDA-MB-435. The experiment in a line: DTP human tumour cell line panel, 48 h.
In turn, `CCOC(=O)/C=C(\C(=O)OCC)n1cc(C)c(=O)n(Cc2cnnn2CCCCOC(C)=O)c1=O` yielded a TGI of 26.1 µM.

For the compound `Cc1ccc2c(=O)cc(-c3cccs3)[nH]c2n1`, the TGI was 5.65 µM.

As for `O=c1oc2ccccc2c(Nc2ccc3c(c2)Oc2ccccc2O3)c1[N+](=O)[O-]`, the concentration for total growth inhibition (TGI) is over 100 µM.

Compound `CCC(C)C(NC(=O)CNC(=O)C(Cc1ccccc1)NC(=O)C1CCCN1C(=O)c1ccc(-c2ccc(Cl)cc2Cl)o1)C(=O)OC` (centres undefined) (X36-PFGI-OMe; configuration not given here) registered a total growth inhibition concentration (TGI) of over 100 µM.

In another assay the test system is SF-539 CNS. Description: DTP human tumour cell line panel, 48 h.
Consider `CCOC(=O)/C=C(\C(=O)OCC)n1cc(C)c(=O)n(Cc2cnnn2CCCCOC(C)=O)c1=O`, for which the TGI came out at 5.66 µM.

As to `Cc1ccc2c(=O)cc(-c3cccs3)[nH]c2n1`, the total growth inhibition concentration (TGI) was 33.1 µM.

In turn, `O=c1oc2ccccc2c(Nc2ccc3c(c2)Oc2ccccc2O3)c1[N+](=O)[O-]` gave a TGI of 36.4 µM.

`CCC(C)C(NC(=O)CNC(=O)C(Cc1ccccc1)NC(=O)C1CCCN1C(=O)c1ccc(-c2ccc(Cl)cc2Cl)o1)C(=O)OC` (centres undefined) (X36-PFGI-OMe; configuration not given here): the concentration for total growth inhibition (TGI) came out at 86.6 µM.

The subject of the next assay is OVCAR-4 ovarian. Description: DTP human tumour cell line panel, 48 h.
For `CCOC(=O)/C=C(\C(=O)OCC)n1cc(C)c(=O)n(Cc2cnnn2CCCCOC(C)=O)c1=O`, the TGI turned out to be 58 µM.

`Cc1ccc2c(=O)cc(-c3cccs3)[nH]c2n1` had a total growth inhibition concentration (TGI) of over 100 µM.

For `O=c1oc2ccccc2c(Nc2ccc3c(c2)Oc2ccccc2O3)c1[N+](=O)[O-]`, the TGI came out at 67 µM.

With `CCC(C)C(NC(=O)CNC(=O)C(Cc1ccccc1)NC(=O)C1CCCN1C(=O)c1ccc(-c2ccc(Cl)cc2Cl)o1)C(=O)OC` (centres undefined) (X36-PFGI-OMe; configuration not given here), the TGI is over 100 µM.

In another assay the test system is RXF 393 renal. The experiment in a line: DTP human tumour cell line panel, 48 h.
In turn, `CCOC(=O)/C=C(\C(=O)OCC)n1cc(C)c(=O)n(Cc2cnnn2CCCCOC(C)=O)c1=O` showed a total growth inhibition concentration (TGI) of 9.1 µM.

For orientation: TGI means the concentration giving total growth inhibition. A low value points to greater sensitivity of the cells.
